Results from patent US11820870B2, “Photocontrolled dynamic covalent linkers for polymer networks” (Northwestern University, priority 2018, dated 2023).

Key:
[1] = Pseudo-first-order reversible esterification with pinacol (LCMS kinetics); type: physicochemical
Protocol: A small-molecule model compound, azobenzene 1, was first designed, in which the boronic acid was positioned ortho to the azo group (FIG. 5). Irradiation of (E)-1 with 365-nm light provided a 88:12 mixture of Z and E isomers. This mixture was subjected to excess pinacol in acetonitrile-water (1:1 v/v, 25° C.) to determine the apparent rates and equilibrium constants of boronic acid (1) esterification and boronic ester (2) hydrolysis for each isomer. While other 1,2- and 1,3-diols were hydrolyzed too quickly to be studied, the unusually slow rate of pinacol hydrolysis allowed the E and Z isomers to be resolved and their reaction kinetics to be monitored by high-performance liquid chromatography (HPLC; see Supporting Information (SI) for details).
After 8 hours, the reactions had reached equilibrium, with 39% conversion of (Z)-1 to (Z)-2 and only 9% conversion of (E)-1 to (E)-2 (FIG. 6A). Using a reversible pseudo-first-order kinetic model, it was determined that the esterification of (Z)-1 was 2.1 times faster than the esterification of (E)-1 (k1) (FIG. 6B, Table 1). The rates of hydrolysis could also be extracted from this model: (E)-2 underwent hydrolysis 2.0 times faster than (Z)-2 did (k−1). These apparent rate constants for hydrolysis were verified by hydrolyzing a mixture of (E)-2 and (Z)-2 under irreversible pseudo-first-order conditions (FIGS. 6C and 6D). Taken together, the apparent equilibrium to form boronic ester from boronic acid and pinacol is 4.3 times more favorable for the Z isomer relative to the E isomer. While convenient for small-molecule kinetic studies, the rate of pinacol ester formation is too slow to be practical for gelation. Thus, a less sterically hindered diol was used for hydrogel studies.
Stock solutions of (E)-1 or (E)-2 were prepared in acetonitrile at 800 μM. Serial dilutions were performed to obtain a final concentration of 12.5 μM. The solutions were directly injected onto the LCMS (Poroshell 120 column, EC-C18, 2.7 μm, 2.1×50 mm). Runs were ten minutes long with solvent gradient from 50:50 to 100:0 ACN:H2O in the first three minutes. Detection was performed at 254 nm with a variable-wavelength detector. The peak area for each concentration was recorded. A calibration curve was created. […] The concentration of the Z-isomer can be calculated from the known concentration of the E-isomer (based on the previously-generated calibration curve).
500 μL of a stock solution of 800 μM of (E)-1 was diluted with 500 μL of 80 mM of pinacol in DI water. The concentrations of (E)-1 and (E)-2 were monitored as a function of time using the above LCMS method. The observed rate constants of esterification (k1(E)) and hydrolysis (k−1(E)) were determined using the derivation shown below.
The data from the concentrations vs. time experiments was fit to the linear expression (1) for a reversible first order reaction and yields the slope denoted as equation (4). […] With the apparent equilibrium constant and slope known, the rates of hydrolysis can be determined with equation (5), and subsequently the rate of esterification can be determined.
500 μL of a stock solution of 800 μM of (E)-1 was irradiated with a 365 nm flashlight for 10 minutes to produce a mixture of (E)-1 and (Z)-1. The mixture was then diluted with 500 μL of a 80 mM pinacol solution in DI water, and the concentrations of (E)-2 and (Z)-2 were monitored as a function of time using the above LCMS method. […]

[2] = Pseudo-first-order irreversible hydrolysis of boronic ester (LCMS kinetics); type: physicochemical; settings: obtained from the irreversible hydrolysis experiments; 1:1 ACN:H2O; average of three experiments
Protocol: After 8 hours, the reactions had reached equilibrium, with 39% conversion of (Z)-1 to (Z)-2 and only 9% conversion of (E)-1 to (E)-2 (FIG. 6A). Using a reversible pseudo-first-order kinetic model, it was determined that the esterification of (Z)-1 was 2.1 times faster than the esterification of (E)-1 (k1) (FIG. 6B, Table 1). The rates of hydrolysis could also be extracted from this model: (E)-2 underwent hydrolysis 2.0 times faster than (Z)-2 did (k−1). These apparent rate constants for hydrolysis were verified by hydrolyzing a mixture of (E)-2 and (Z)-2 under irreversible pseudo-first-order conditions (FIGS. 6C and 6D). […]
Stock solutions of (E)-1 or (E)-2 were prepared in acetonitrile at 800 μM. […] The peak area for each concentration was recorded. […] The concentration of the Z-isomer can be calculated from the known concentration of the E-isomer (based on the previously-generated calibration curve).
500 μL of a stock solution of 800 μM of (E)-2 was irradiated with a 365 nm flashlight for 10 minutes to produce a mixture of (E)-2 and (Z)-2. The mixture was then diluted with 500 μL of DI H2O and the concentration of (E)-2 and (Z)-2 was monitored as a function of time. The observed rate constants of hydrolysis k−1(E) and k−1(Z) were determined using the derivation shown below. […]

[3] = reversible esterification, 400 μM with 40 mM pinacol, 1:1 ACN:H2O, 25° C., average of three experiments

SMILES | conversion of boronic acid to boronic ester at equilibrium ([1]; after 8 hours, excess pinacol, acetonitrile-water 1:1 v/v, 25° C.) [%] | Keq [a] apparent equilibrium constant [1, 3] | k1 [a] apparent rate constant of esterification [1, 3] | k−1 [b] apparent rate constant of hydrolysis [2] | k−1 [a] apparent rate constant of hydrolysis ([1]; obtained from the reversible esterification experiment, 1:1 ACN:H2O, average of three experiments) | hydrolysis rate (k−1), times faster than (Z)-2 ([1]; ratio E isomer to Z isomer) [times]
COC(=O)c1ccc(/N=N/c2ccccc2B(O)O)cc1 [(E)-1, (E)-(2-((4-(methoxycarbonyl)phenyl)diazinyl)phenyl)boronic acid] | 9 | 0.090 ± 0.016 | 2.56 ± 0.28 × 10^−5 s^−1 |  |  | 
COC(=O)c1ccc(/N=N/c2ccccc2B2OC(C)(C)C(C)(C)O2)cc1 [(E)-2, Methyl (E)-4-((2-(4,4,5,5-tetramethyl-1,3,2,-dioxaborolan-2-yl)phenyl)diazinyl)benzoate] |  |  |  | 2.83 ± 0.06 × 10^−4 s^−1 | 2.76 ± 0.32 × 10^−4 s^−1 | 2.0
